Reference: patent US20260356840A1, “[1,2,4]TRIAZOLO[1,5-A]PYRIMIDINONE WRN INHIBITORS” (Nimbus Wadjet, Inc., priority 2023, published 2026)

These compounds were tested against T1, human Werner helicase (Uniprot Q14191, amino acids 517-1235 with L1074F point mutation), WRN-BV08 (Homo sapiens, UniProt Q14191, L1074F) (assay: WRN (BV08) ADP-Glo Assay).
T1 construct: Uniprot Q14191, amino acids 517-1235 with L1074F point mutation; TEV cleavable 8xHis tag (C, cleaved yes); made in house; host or cells: Sf9 insect cells (baculovirus, pFastBac)
T1 sequence (Q14191 517-1235 L1074F): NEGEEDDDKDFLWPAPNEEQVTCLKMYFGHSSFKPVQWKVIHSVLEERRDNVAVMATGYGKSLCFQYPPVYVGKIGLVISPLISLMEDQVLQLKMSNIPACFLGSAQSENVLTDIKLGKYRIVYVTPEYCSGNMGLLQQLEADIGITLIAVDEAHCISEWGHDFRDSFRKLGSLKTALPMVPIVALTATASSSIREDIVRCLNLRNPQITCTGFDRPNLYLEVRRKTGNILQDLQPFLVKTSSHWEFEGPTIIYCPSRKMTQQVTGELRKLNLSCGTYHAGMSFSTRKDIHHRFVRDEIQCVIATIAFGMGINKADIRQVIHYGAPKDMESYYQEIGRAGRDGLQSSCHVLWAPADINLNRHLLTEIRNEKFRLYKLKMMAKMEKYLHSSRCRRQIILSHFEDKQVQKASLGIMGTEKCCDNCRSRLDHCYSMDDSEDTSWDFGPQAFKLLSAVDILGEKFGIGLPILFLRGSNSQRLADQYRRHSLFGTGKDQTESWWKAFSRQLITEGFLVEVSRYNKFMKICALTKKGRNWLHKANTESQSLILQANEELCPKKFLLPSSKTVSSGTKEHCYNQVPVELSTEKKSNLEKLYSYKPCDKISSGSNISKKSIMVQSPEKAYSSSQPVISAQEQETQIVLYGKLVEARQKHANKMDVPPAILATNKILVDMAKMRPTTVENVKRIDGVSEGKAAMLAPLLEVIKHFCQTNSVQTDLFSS
Format: biochemical
Procedure: DNA duplex was synthesized at BGI (Shenzhen, China) and was composed of strand 1 with the sequence 5′-[…]-3′ (SEQ ID NO.: 1) and strand 2 with the sequence 5′-[…]-3′ (SEQ ID NO.: 2). DNA strands were annealed by heating to 95 °C for 5 minutes followed by slow cooling to room temperature. […] DMSO (0.1 μl) was added to columns 12, rows A-H and column 24, rows I-P for the maximum signal control.
Where RLU=relative luminescence units, sample=signal in sample well, and MIN and MAX are the respective minimum and maximum signal controls. • Four-parameter IC50 fit equation:
Y=Bottom+(Top−Bottom)/(1+(IC50/X)^Hill Slope)
Where top and bottom are normally allowed to float but may be fixed at 100 or 0 respectively in a 3-parameter fit. Y is the % inhibition and X is the compound concentration.
Molecular Biology and virus production. […] The baculovirus from the expression plasmid WRN-BV08 was generated from transfection and amplification following the manufacturer's instructions.
Sf9 cells grown in SF900II media were infected with 1:200 WRN-BV08 P2 virus and incubated for protein expression for 72 h at 27 °C. The WRN protein was purified using the following protocol. The cell pellets were thawed and resuspended in buffer A (50 mM Tris, pH 7.5, 500 mM NaCl, 1 mM TCEP, 10% Glycerol) supplemented with 0.5% CHAPS, 1 mM [COMPOUND LEFT OUT], 1 μg/ml Leupeptin, 1 μg/ml Pepstatin, and the Pierce Universal Nuclease and cocktail tablet. Cleared lysates were loaded onto a Ni Sepharose™ excel column and washed with buffer A and bound protein was eluted with buffer A supplemented with 300 mM imidazole. The eluted protein was dialyzed against buffer A and digested by His-tagged TEV (1:5 ratio) overnight at 4 °C. […] Untagged WRN protein was eluted from the column with buffer A supplemented with 20 mM imidazole, dialyzed overnight into buffer B (50 mM Tris, pH 7.5, 1 mM TCEP, 10% Glycerol) supplemented with 150 mM NaCl and loaded onto a Heparin column. Proteins were eluted with a step gradient of buffer B supplemented with 150 mM, 200 mM, 300 mM and 500 mM NaCl.
Compound `CCc1c(N2CCN(C(=O)c3ncc(C)s3)CC2)c(=O)n2nc(-c3ccnc(OC)c3)nc2n1CC(=O)Nc1ccc(C(F)(F)F)cc1Cl` [Compound I-58, N-[2-chloro-4-(trifluoromethyl)phenyl]-2-[5-ethyl-2-(2-methoxypyridin-4-yl)-6-[4-(5-methyl-1,3-thiazole-2-carbonyl)piperazin-1-yl]-7-oxo-4H,7H-[1,2,4]triazolo[1,5-a]pyrimidin-4-yl]acetamide] has an IC50 of 0.05 to 0.1 µM.
For `CCc1c(N2CCN(C(=O)c3nn(C)cc3O)CC2)c(=O)n2nc(C3=CCOCC3)nc2n1CC(=O)Nc1ccc(C(F)(F)F)cc1Cl` [Compound I-12, N-[2-chloro-4-(trifluoromethyl)phenyl]-2-[2-(3,6-dihydro-2H-pyran-4-yl)-5-ethyl-6-[4-(4-hydroxy-1-methyl-1H-pyrazole-3-carbonyl)piperazin-1-yl]-7-oxo-4H,7H-[1,2,4]triazolo[1,5-a]pyrimidin-4-yl]acetamide], the IC50 was 0.005 to 0.05 µM.
`CCc1c(N2CCN(C(=O)c3ccnc4cccnc34)CC2)c(=O)n2nc(C3=CCOCC3)nc2n1CC(=O)Nc1ccc(C(F)(F)F)cc1Cl` [Compound I-37, N-[2-chloro-4-(trifluoromethyl)phenyl]-2-[2-(3,6-dihydro-2H-pyran-4-yl)-5-ethyl-6-[4-(1,5-naphthyridine-4-carbonyl)piperazin-1-yl]-7-oxo-4H,7H-[1,2,4]triazolo[1,5-a]pyrimidin-4-yl]acetamide] was tested, and the IC50 was 0.005 to 0.05 µM.
`CCc1c(N2CCN(C(=O)c3ccn(C)n3)CC2)c(=O)n2nc(C3=CCOCC3)nc2n1CC(=O)Nc1ccc(C(F)(F)F)cc1Cl` [Compound I-30, N-[2-chloro-4-(trifluoromethyl)phenyl]-2-[2-(3,6-dihydro-2H-pyran-4-yl)-5-ethyl-6-[4-(1-methyl-1H-pyrazole-3-carbonyl)piperazin-1-yl]-7-oxo-4H,7H-[1,2,4]triazolo[1,5-a]pyrimidin-4-yl]acetamide] showed an IC50 of 0.005 to 0.05 µM.
Compound `CCc1c(N2CCN(C(=O)c3cn(C)[nH]c3=O)CC2)c(=O)n2nc(C3=CCOCC3)nc2n1CC(=O)Nc1ccc(C(F)(F)F)cc1Cl` [Compound I-11, N-[2-chloro-4-(trifluoromethyl)phenyl]-2-[2-(3,6-dihydro-2H-pyran-4-yl)-5-ethyl-6-[4-(3-hydroxy-1-methyl-1H-pyrazole-4-carbonyl)piperazin-1-yl]-7-oxo-4H,7H-[1,2,4]triazolo[1,5-a]pyrimidin-4-yl]acetamide] has an IC50 of less than 0.005 µM.
`CCc1c(N2CCN(C(=O)C(C)(C)O)CC2)c(=O)n2nc(C3=CCOCC3)nc2n1CC(=O)Nc1ccc(C(F)(F)F)cc1Cl` [Compound I-18, N-[2-chloro-4-(trifluoromethyl)phenyl]-2-[2-(3,6-dihydro-2H-pyran-4-yl)-5-ethyl-6-[4-(2-hydroxy-2-methylpropanoyl)piperazin-1-yl]-7-oxo-4H,7H-[1,2,4]triazolo[1,5-a]pyrimidin-4-yl]acetamide] was tested, and the IC50 was 0.05 to 0.1 µM.
Compound `CCc1c(N2CCN(C(=O)c3c(C)nn(C)c3OC)CC2)c(=O)n2nc(-c3ccnc(OC)c3)nc2n1CC(=O)Nc1ccc(C(F)(F)F)cc1Cl` [Compound I-62, N-[2-chloro-4-(trifluoromethyl)phenyl]-2-{5-ethyl-6-[4-(5-methoxy-1,3-dimethyl-1H-pyrazole-4-carbonyl)piperazin-1-yl]-2-(2-methoxypyridin-4-yl)-7-oxo-4H,7H-[1,2,4]triazolo[1,5-a]pyrimidin-4-yl}acetamide] has an IC50 of 0.005 to 0.05 µM.
Compound `CCc1c(N2CCN(C(C)=O)CC2)c(=O)n2nc(C3=CCOCC3)nc2n1CC(=O)Nc1ccc(C(F)(F)F)cc1Cl` [Compound I-16, 2-[6-(4-acetylpiperazin-1-yl)-2-(3,6-dihydro-2H-pyran-4-yl)-5-ethyl-7-oxo-4H,7H-[1,2,4]triazolo[1,5-a]pyrimidin-4-yl]-N-[2-chloro-4-(trifluoromethyl)phenyl]acetamide] has an IC50 of 0.005 to 0.05 µM.
For `CCc1c(N2CCN(C(=O)c3ncnc(C)c3O)CC2)c(=O)n2nc(-c3ccc(OC)nc3)nc2n1CC(=O)Nc1ccc(C(F)(F)F)cc1Cl` [Compound I-22, N-[2-chloro-4-(trifluoromethyl)phenyl]-2-{5-ethyl-6-[4-(5-hydroxy-6-methylpyrimidine-4-carbonyl)piperazin-1-yl]-2-(6-methoxypyridin-3-yl)-7-oxo-4H,7H-[1,2,4]triazolo[1,5-a]pyrimidin-4-yl}acetamide], the IC50 was 0.005 to 0.05 µM.
`CCc1c(N2CCN(C(=O)CC#N)CC2)c(=O)n2nc(C3=CCOCC3)nc2n1CC(=O)Nc1ccc(C(F)(F)F)cc1Cl` [Compound I-25, N-[2-chloro-4-(trifluoromethyl)phenyl]-2-{6-[4-(2-cyanoacetyl)piperazin-1-yl]-2-(3,6-dihydro-2H-pyran-4-yl)-5-ethyl-7-oxo-4H,7H-[1,2,4]triazolo[1,5-a]pyrimidin-4-yl}acetamide] gave an IC50 of 0.005 to 0.05 µM.
`CCc1c(N2CCN(C(=O)c3cccc4cn[nH]c34)CC2)c(=O)n2nc(C3=CCOCC3)nc2n1CC(=O)Nc1ccc(C(F)(F)F)cc1Cl` [Compound I-14, N-[2-chloro-4-(trifluoromethyl)phenyl]-2-[2-(3,6-dihydro-2H-pyran-4-yl)-5-ethyl-6-[4-(1H-indazole-7-carbonyl)piperazin-1-yl]-7-oxo-4H,7H-[1,2,4]triazolo[1,5-a]pyrimidin-4-yl]acetamide] gave an IC50 of less than 0.005 µM.
`CCc1c(N2CCN(C(=O)C(C)(C)C#N)CC2)c(=O)n2nc(C3=CCOCC3)nc2n1CC(=O)Nc1ccc(C(F)(F)F)cc1Cl` [Compound I-31, N-[2-chloro-4-(trifluoromethyl)phenyl]-2-{6-[4-(2-cyano-2,2-dimethylacetyl)piperazin-1-yl]-2-(3,6-dihydro-2H-pyran-4-yl)-5-ethyl-7-oxo-4H,7H-[1,2,4]triazolo[1,5-a]pyrimidin-4-yl}acetamide] was tested, and the IC50 was 0.05 to 0.1 µM.
`CCc1c(N2CCN(C(=O)c3c(O)noc3C)CC2)c(=O)n2nc(C3=CCOCC3)nc2n1CC(=O)Nc1ccc(C(F)(F)F)cc1Cl` [Compound I-28, N-[2-chloro-4-(trifluoromethyl)phenyl]-2-[2-(3,6-dihydro-2H-pyran-4-yl)-5-ethyl-6-[4-(3-hydroxy-5-methyl-1,2-oxazole-4-carbonyl)piperazin-1-yl]-7-oxo-4H,7H-[1,2,4]triazolo[1,5-a]pyrimidin-4-yl]acetamide] was tested, and the IC50 was less than 0.005 µM.
`CCc1c(N2CCN(C(=O)c3cnn(C)c3)CC2)c(=O)n2nc(-c3cnc(OC)nc3)nc2n1CC(=O)Nc1ccc(C(F)(F)F)cc1Cl` [Compound I-51, N-[2-chloro-4-(trifluoromethyl)phenyl]-2-[5-ethyl-2-(2-methoxypyrimidin-5-yl)-6-[4-(1-methyl-1H-pyrazole-4-carbonyl)piperazin-1-yl]-7-oxo-4H,7H-[1,2,4]triazolo[1,5-a]pyrimidin-4-yl]acetamide] showed an IC50 of 0.005 to 0.05 µM.
`CCc1c(N2CCN(C(=O)c3nn(C)cc3O)CC2)c(=O)n2nc(-c3ccnc(OC)c3)nc2n1CC(=O)Nc1ccc(C(F)(F)F)cc1Cl` [Compound I-35, N-[2-chloro-4-(trifluoromethyl)phenyl]-2-{5-ethyl-6-[4-(4-hydroxy-1-methyl-1H-pyrazole-3-carbonyl)piperazin-1-yl]-2-(2-methoxypyridin-4-yl)-7-oxo-4H,7H-[1,2,4]triazolo[1,5-a]pyrimidin-4-yl}acetamide] was tested, and the IC50 was 0.005 to 0.05 µM.
